“And” between values parts separate entries of the source, which are not always exact repeats. Equal entries are not always repeated. Where two headings read alike, the source gives them in different places.
Assays:
[1] = test system: cells in peripheral blood; conditions: for Number of cells, peripheral blood, average: average of group; for Number of cells, peripheral blood, individual mice: single mice
From the text: The injection was an intraperitoneally injection.
The peripheral blood of the mice of the first and the second groups of mice under experimentation according to a) was used to determine the total number of all cells on day 0 and then on each of the following days until day 10 on several mice selected from each of the first and the second groups.
The number of cells in peripheral blood has been evaluated as hereafter disclosed.

cells in bone marrow = conditions: for Number of cells, bone marrow, average: average of group; for Number of cells, bone marrow, individual mice: single mice
Protocol: A first group and a second group comprising each 50 mice of the Balb/c type were tested.
On day 0 and then each day after day 0, during 10 days, the total number of cells per ml in bone marrow was determined on several mice of each of both first and second groups.
The number of cells in bone marrow was evaluated as hereafter disclosed. The mice were killed by cervical dislocation, placed on their back on cutting board and soaked with ethanol. A long traverse cut through the skin in the middle of the abdominal area was followed by reflecting the skin from the hindquarters and the hind legs. The legs were separated from the body at the hip joint and the feet were removed. The legs were placed in a Petri dish obtaining RPMI 1640 medium (Sigma). All muscle tissue from the femurs and tibia was removed and the bones were separated (only femurs were used). The epiphyses were cut off on both ends, the bone end was punctured with a 23 G needle and flushed out with 3 ml of warm (22° C.) RPMI 1640 medium. The large debris and cell clumps were removed by layering the cell suspension over 3 ml of heat-inactivated fetal calf serum (FCS; Hyclone, Logan, Utah, USA) for 10 minutes on ice. The cells collected from the top of FCS were washed once by centrifugation at 300×g for 10 minutes at 4° C. and kept in RMPI 1640 medium containing 5% FCS. Five microliters of the cell suspension was mixed with 95 ul of Turk's solution (a mixture of 3 ml concentrated acetic acid, 3 ml of 1% crystal violet in water, Fernandez-Botran and Vetvicka “Methods in Cellular Immunology”, CRC Press, Boca Raton, 1995), and incubated for 5 minutes at room temperature. One drop of this solution has been dropped into a hemocytometer and the cells were counted under an optical microscope.
The result of the counting is expressed in number of cells per femur×10^6.

## O=P1(N(CCCl)CCCl)NCCCO1 (stereo not drawn) [cyclophosphamide]
[1]; day 1
  Number of cells, peripheral blood, average: 3.6 per ml × 10^5
[1]; day 2
  Number of cells, peripheral blood, average: 3.6 per ml × 10^5
  Number of cells, peripheral blood, individual mice: 6.6 per ml × 10^5 and 6.0 per ml × 10^5 and 6.3 per ml × 10^5
[1]; day 3
  Number of cells, peripheral blood, average: 4.2 per ml × 10^5
  Number of cells, peripheral blood, individual mice: 3.8 per ml × 10^5 (2×) and 5.1 per ml × 10^5
[1]; day 4
  Number of cells, peripheral blood, average: 5.1 per ml × 10^5
[1]; day 5
  Number of cells, peripheral blood, average: 7.2 per ml × 10^5
  Number of cells, peripheral blood, individual mice: 4.0 per ml × 10^5 and 9.6 per ml × 10^5 and 8.1 per ml × 10^5
[1]; day 6
  Number of cells, peripheral blood, average: 6.5 per ml × 10^5
  Number of cells, peripheral blood, individual mice: 7.8 per ml × 10^5 and 5.0 per ml × 10^5 and 6.7 per ml × 10^5
[1]; day 7
  Number of cells, peripheral blood, average: 6.4 per ml × 10^5
  Number of cells, peripheral blood, individual mice: 3.8 per ml × 10^5 and 7.3 per ml × 10^5 and 8.1 per ml × 10^5
[1]; day 8
  Number of cells, peripheral blood, average: 7.2 per ml × 10^5
  Number of cells, peripheral blood, individual mice: 4.1 per ml × 10^5 and 8.2 per ml × 10^5 and 9.3 per ml × 10^5
[1]; day 9
  Number of cells, peripheral blood, average: 11.2 per ml × 10^5
  Number of cells, peripheral blood, individual mice: 8.9 per ml × 10^5 and 11.9 per ml × 10^5 and 12.9 per ml × 10^5
[1]; day 10
  Number of cells, peripheral blood, average: 29.2 per ml × 10^5
  Number of cells, peripheral blood, individual mice: 23.8 per ml × 10^5 and 27.8 per ml × 10^5 and 35.9 per ml × 10^5
Cells in bone marrow; day 1
  Number of cells, bone marrow, average: 1.25 per femur × 10^6
Cells in bone marrow; day 1 after i.p. injection
  Number of cells, bone marrow, individual mice: 1 per femur × 10^6 and 1.2 per femur × 10^6 and 1.4 per femur × 10^6 (2×)
Cells in bone marrow; day 2
  Number of cells, bone marrow, average: 1.25 per femur × 10^6
  Number of cells, bone marrow, individual mice: 0.8 per femur × 10^6 and 2.0 per femur × 10^6 and 2.4 per femur × 10^6
Cells in bone marrow; day 3
  Number of cells, bone marrow, average: 3.6 per femur × 10^6
Cells in bone marrow; day 4
  Number of cells, bone marrow, average: 2.7 per femur × 10^6
Cells in bone marrow; day 5
  Number of cells, bone marrow, average: 4.7 per femur × 10^6
  Number of cells, bone marrow, individual mice: 2.1 per femur × 10^6 and 6.0 per femur × 10^6 and 6.1 per femur × 10^6
Cells in bone marrow; day 6
  Number of cells, bone marrow, average: 6.4 per femur × 10^6
  Number of cells, bone marrow, individual mice: 6.5 per femur × 10^6 and 5.7 per femur × 10^6 and 7.0 per femur × 10^6
Cells in bone marrow; day 7
  Number of cells, bone marrow, average: 8.1 per femur × 10^6
  Number of cells, bone marrow, individual mice: 9.0 per femur × 10^6 and 8.1 per femur × 10^6 and 7.3 per femur × 10^6
Cells in bone marrow; day 8
  Number of cells, bone marrow, average: 6.3 per femur × 10^6
  Number of cells, bone marrow, individual mice: 6.0 per femur × 10^6 and 6.2 per femur × 10^6 and 6.8 per femur × 10^6
Cells in bone marrow; day 9
  Number of cells, bone marrow, average: 8.2 per femur × 10^6
  Number of cells, bone marrow, individual mice: 8.0 per femur × 10^6 and 8.5 per femur × 10^6 and 8.2 per femur × 10^6
Cells in bone marrow; day 10
  Number of cells, bone marrow, average: 9.4 per femur × 10^6
  Number of cells, bone marrow, individual mice: 7.2 per femur × 10^6 and 10.8 per femur × 10^6 and 10.3 per femur × 10^6
